According to publication PMC11258351, “PK/PD investigation of antiviral host matriptase/TMPRSS2 inhibitors in cell models” (Scientific Reports, 2024):
pKi: −log10 of the molar value. “And” between values parts separate entries of the source, which are not always exact repeats. Identical values can stand only once. “Also recorded” adds a separate entry of the source. Like-named read-outs stand apart in the source and are kept apart here.

Experiments:
[1] = Prediction of in vivo human PK parameters from hepatocyte clearance; type: in vitro ADME; conditions: for Classification (extraction type) / Extraction ratio EH: predicted; for Predicted Cl, CLH: predicted from hepatocyte Clint, fu = 1
[2] = test system: H9N2 IAV strain A/quail/Shantou/782/00; type: cell-based, influenza A virus; conditions: MDCK-II cells, 24 h
[3] = test system: H9N2 IAV strain A/quail/Shantou/782/00; type: cell-based, influenza A virus; conditions: MDCK-II cells
[4] = test system: A/Hamburg/5/09 (H1N1pdm); type: cell-based, influenza A virus
[5] = test system: primary human hepatocytes; experiment: Cytotoxicity in primary human hepatocytes; type: cell-based; conditions: 50 µM, 24 h
Experimental: Supplementary Figure S1. Cytotoxicity of MI-463 and MI-1900 at 50 µM for 24 h in primary human hepatocytes. DMSO was applied as solvent control at 0.5% for 24 h.

[6] = molecular target: T1, CYP1A2 (Homo sapiens, UniProt P05177); design: method as in PMID 34915414; conditions: earlier study; cited from earlier work
T1 sequence (P05177 1-516): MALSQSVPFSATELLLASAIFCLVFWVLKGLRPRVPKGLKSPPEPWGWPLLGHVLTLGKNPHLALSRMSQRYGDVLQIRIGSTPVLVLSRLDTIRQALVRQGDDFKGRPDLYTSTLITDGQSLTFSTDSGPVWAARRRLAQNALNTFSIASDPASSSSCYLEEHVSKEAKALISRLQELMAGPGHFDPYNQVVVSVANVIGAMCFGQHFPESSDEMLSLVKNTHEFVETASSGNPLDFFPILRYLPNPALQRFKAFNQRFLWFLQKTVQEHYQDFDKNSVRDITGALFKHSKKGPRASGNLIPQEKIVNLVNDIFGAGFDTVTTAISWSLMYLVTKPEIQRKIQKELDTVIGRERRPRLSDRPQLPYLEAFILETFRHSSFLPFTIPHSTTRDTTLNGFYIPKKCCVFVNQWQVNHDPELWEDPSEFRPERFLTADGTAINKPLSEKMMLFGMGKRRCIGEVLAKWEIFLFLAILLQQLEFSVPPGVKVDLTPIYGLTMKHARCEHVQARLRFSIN

[7] = molecular target: T2, CYP2C9 (Homo sapiens, UniProt P11712); design: method as in PMID 34915414; conditions: earlier study; cited from earlier work
[8] = molecular target: T3, CYP2C19 (Homo sapiens, UniProt P33261); design: method as in PMID 34915414; conditions: earlier study; cited from earlier work
[9] = molecular target: T4, CYP2D6 (Homo sapiens, UniProt P10635); design: method as in PMID 34915414; conditions: earlier study; cited from earlier work
[10] = molecular target: matriptase; design: method as in PMID 35635944; conditions: cited from earlier work
[11] = molecular target: TMPRSS2; design: method as in PMID 35635944; conditions: cited from earlier work
[12] = test system: monkey CYP1A2; design: method as in PMID 35448654; conditions: cited from earlier work
[13] = test system: rat CYP1A2; design: method as in PMID 35448654; conditions: cited from earlier work
[14] = test system: beagle dog CYP1A2; design: method as in PMID 35448654; conditions: cited from earlier work
[15] = test system: cynomolgus monkey hepatocytes; design: method as in PMID 31391268; conditions: cited from earlier work
[16] = molecular target: T5, CYP3A4 (Homo sapiens, UniProt P08684); experiment: Fluorometric CYP3A4 activity assay in human hepatic microsomes; conditions: for Effect on CYP3A4 enzyme activity: human liver microsomes, 10, 25 and 50 µM; for Effect on CYP3A4 enzyme activity at the lowest applied concentration: human liver microsomes, lowest applied concentration (10 µM)
[17] = Depletion of inhibitors in human primary hepatocyte suspension (LC-MS/MS); conditions: human, cryopreserved primary human hepatocytes in suspension; for CLint scaled at 10 µM: intrinsic clearance from primary human hepatocytes scaled to whole liver/body weight
[18] = test system: human primary hepatocytes; experiment: as above; conditions: for Parent compound retained at the 120-min sampling point / Sampling interval at which significant depletion was first observed: primary human hepatocytes, 10 µM; for Parent compound retained at the 120-min sampling point: % of 0-min concentration, mean ± S.E.M.; for Sampling interval at which significant depletion was first observed: sampling 0-120 min
[19] = test system: H9N2; conditions: MDCK-II cells, 20 μM and 50 μM; cited from earlier work
[20] = molecular target: T1, CYP1A2; experiment: Fluorometric CYP1A2 activity assay in human hepatic microsomes; conditions: human liver microsomes, protease inhibitors at 50 µM, 15 min 37 °C
[21] = molecular target: T2, CYP2C9; experiment: Fluorometric CYP2C9 activity assay in human hepatic microsomes; conditions: human liver microsomes, protease inhibitors at 50 µM, 15 min 37 °C
[22] = molecular target: T4, CYP2D6; experiment: Fluorometric CYP2D6 activity assay in human hepatic microsomes; conditions: human liver microsomes; for Inhibition of CYP2D6 activity: protease inhibitors at 50 µM, 15 min 37 °C
[23] = molecular target: T3, CYP2C19; experiment: Fluorometric CYP2C19 activity assay in human hepatic microsomes; conditions: human liver microsomes, protease inhibitors at 50 µM, 15 min 37 °C
[24] = molecular target: T5, CYP3A4; design: method as in PMID 34915414; conditions: fluorometric assays, earlier study; cited from earlier work
[25] = test system: SARS-CoV-2; design: method as in PMID 32703818; conditions: Calu-3 cells, 50 μM, 24 h p.i.; cited from earlier work
[26] = test system: Calu-3 cells; design: method as in PMID 32703818; conditions: 50 μM; cited from earlier work

T4 sequence (P10635 whole entry): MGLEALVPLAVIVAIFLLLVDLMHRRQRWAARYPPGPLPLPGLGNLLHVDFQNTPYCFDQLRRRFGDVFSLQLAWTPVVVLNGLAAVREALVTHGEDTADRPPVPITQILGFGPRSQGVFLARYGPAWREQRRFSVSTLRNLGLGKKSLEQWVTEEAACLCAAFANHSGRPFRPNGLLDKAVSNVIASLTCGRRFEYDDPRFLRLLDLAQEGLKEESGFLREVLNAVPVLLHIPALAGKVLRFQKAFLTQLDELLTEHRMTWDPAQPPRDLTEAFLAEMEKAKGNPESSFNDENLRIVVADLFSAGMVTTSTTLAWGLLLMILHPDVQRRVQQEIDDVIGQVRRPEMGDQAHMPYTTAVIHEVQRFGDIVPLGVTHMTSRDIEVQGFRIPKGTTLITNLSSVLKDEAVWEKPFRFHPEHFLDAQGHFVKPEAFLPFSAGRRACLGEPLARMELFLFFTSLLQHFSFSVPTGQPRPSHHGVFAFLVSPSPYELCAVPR
T2 sequence (P11712 whole entry): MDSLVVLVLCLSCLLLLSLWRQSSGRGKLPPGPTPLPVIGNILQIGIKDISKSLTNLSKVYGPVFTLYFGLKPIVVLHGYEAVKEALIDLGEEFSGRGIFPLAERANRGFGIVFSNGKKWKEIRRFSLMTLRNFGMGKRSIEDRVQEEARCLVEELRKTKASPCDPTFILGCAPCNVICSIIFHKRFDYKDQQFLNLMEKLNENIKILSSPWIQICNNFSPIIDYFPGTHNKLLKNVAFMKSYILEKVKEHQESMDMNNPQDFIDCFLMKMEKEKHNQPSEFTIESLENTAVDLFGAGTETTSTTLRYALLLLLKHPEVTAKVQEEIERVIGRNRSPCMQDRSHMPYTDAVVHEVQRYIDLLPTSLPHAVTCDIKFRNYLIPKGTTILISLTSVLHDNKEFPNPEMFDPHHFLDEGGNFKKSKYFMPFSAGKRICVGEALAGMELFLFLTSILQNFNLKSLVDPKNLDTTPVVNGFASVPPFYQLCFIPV
T5 sequence (P08684 whole entry): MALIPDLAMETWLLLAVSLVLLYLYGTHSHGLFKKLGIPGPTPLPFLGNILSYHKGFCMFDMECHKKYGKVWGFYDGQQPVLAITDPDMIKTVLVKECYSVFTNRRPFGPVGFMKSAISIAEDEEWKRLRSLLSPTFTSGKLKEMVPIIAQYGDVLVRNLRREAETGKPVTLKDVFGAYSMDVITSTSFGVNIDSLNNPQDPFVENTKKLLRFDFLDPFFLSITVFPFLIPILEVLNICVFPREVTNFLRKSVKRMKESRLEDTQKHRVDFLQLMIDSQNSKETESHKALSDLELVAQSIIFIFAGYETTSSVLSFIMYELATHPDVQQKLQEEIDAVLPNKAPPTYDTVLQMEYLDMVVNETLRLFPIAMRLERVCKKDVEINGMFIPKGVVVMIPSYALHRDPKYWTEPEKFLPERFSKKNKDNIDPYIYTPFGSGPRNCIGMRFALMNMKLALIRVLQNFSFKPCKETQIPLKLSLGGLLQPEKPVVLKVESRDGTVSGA
T3 sequence (P33261 whole entry): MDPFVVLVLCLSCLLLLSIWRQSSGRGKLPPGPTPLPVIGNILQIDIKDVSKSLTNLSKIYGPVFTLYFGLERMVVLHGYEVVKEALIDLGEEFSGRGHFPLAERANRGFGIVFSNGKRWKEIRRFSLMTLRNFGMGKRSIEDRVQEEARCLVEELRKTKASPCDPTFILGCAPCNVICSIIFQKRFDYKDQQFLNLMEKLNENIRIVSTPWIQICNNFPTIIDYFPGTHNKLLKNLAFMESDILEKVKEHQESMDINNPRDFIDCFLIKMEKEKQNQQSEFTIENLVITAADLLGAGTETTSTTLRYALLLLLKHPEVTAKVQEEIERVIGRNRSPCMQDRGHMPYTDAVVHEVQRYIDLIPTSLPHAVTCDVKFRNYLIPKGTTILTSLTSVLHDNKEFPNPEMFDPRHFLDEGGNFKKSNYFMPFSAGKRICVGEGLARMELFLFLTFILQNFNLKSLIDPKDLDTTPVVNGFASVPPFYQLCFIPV

Structure (SMILES) | Classification (extraction type) [1] | Extraction ratio EH [1] | Predicted Cl, CLH [1] | H9N2 viral spread / formation of viral foci ([2]; MOI 0.01, 50 µM) | Cytotoxicity in primary human hepatocytes [5] | Inhibition of CYP1A2 activity [6] | Inhibition of CYP2C9 activity [7] | Inhibition of CYP2C19 activity [8] | Inhibition of CYP2D6 activity [9] | Treatment time after which significant conversion was seen [15] | Effect on CYP3A4 enzyme activity [16] | half-life at 10 µM [17] | CLint scaled at 10 µM [17] | Parent compound retained at the 120-min sampling point [18] | Sampling interval at which significant depletion was first observed [18] | Effect on H9N2 virus propagation [19] | Inhibition of CYP1A2 activity [20] | Inhibition of CYP2C9 activity [21] | Inhibition of CYP2D6 activity [22] | Inhibition of CYP2C19 activity [23] | also measured
COc1ccc(-c2cccc(S(=O)(=O)N[C@@H](Cc3cccc(C(=N)N)c3)C(=O)N3CCC(NC(=O)NC4CCCCC4)CC3)c2)c(OC)c1 [MI-463] | Intermediate | 0.37 | 7.60 | fully prevented formation of viral foci; also recorded: fully preventing the formation of H9N2 viral foci | No significant differences in cell viabilities; also recorded: lack of cytotoxicity | No significant CYP inhibitory potential | No significant CYP inhibitory potential | No significant CYP inhibitory potential | No significant CYP inhibitory potential | 60 to 120 min | significant inhibitory effect | 3.57 h | 1.28 L/h/kg | 66.7 ± 5.5% and 66.7% | 30 min |  |  |  |  |  | H9N2 viral spread / formation of viral foci ([2]; MOI 0.01, 20 µM): marked reduction of viral spread; Reduction of H9N2 viral titers compared to untreated controls ([3]; 20 µM, 24 h): approximately 1.4 log; Reduction of H9N2 viral titers compared to untreated controls ([3]; 20 µM, 48 h): 2.1 logs; Reduction of H9N2 viral titers compared to untreated controls ([3]; 50 µM, 24 h): ~1.8 log; Reduction of H9N2 viral titers compared to untreated controls ([3]; 50 µM, 48 h): 2.6 logs; Reduction of H1N1 viral titers [4]: 0.95–1.34 logs; pKi [10]: 8.40; pKi [11]: 8.52; Inhibition of monkey CYP1A2 [12]: significant inhibition; Inhibition of rat CYP1A2 [13]: significant inhibition; Inhibition of beagle dog CYP1A2 [14]: no significant inhibition; Effect on CYP3A4 enzyme activity at the lowest applied concentration [16]: potent inhibitors
COc1ccc(-c2cccc(S(=O)(=O)N[C@@H](Cc3cccc(C(=N)N)c3)C(=O)N3CCC(NC(=O)NC(C)(C)C)CC3)c2)c(OC)c1 [MI-485] | Intermediate | 0.39 | 8.17 |  |  |  |  |  |  | 60 to 120 min | significant inhibitory effect | 2.86 h | 1.6 L/h/kg | 64.9 ± 5.3% | 30 min | most pronounced reduction | No significant CYP inhibitory potential | No significant CYP inhibitory potential | No significant CYP inhibitory potential | No significant CYP inhibitory potential | Effect on CYP3A4 enzyme activity at the lowest applied concentration [16]: potent inhibitors
COc1ccc(-c2cccc(S(=O)(=O)N[C@@H](Cc3cccc(C(=N)N)c3)C(=O)N3CCN(C(=O)NC4CCCCC4)CC3)c2)c(OC)c1 [MI-1900] | Intermediate | 0.45 | 9.23 | strong suppression of viral spread | No significant differences in cell viabilities; also recorded: lack of cytotoxicity | No significant CYP inhibitory potential | No significant CYP inhibitory potential | No significant CYP inhibitory potential | No significant CYP inhibitory potential | 60 to 120 min |  | 1.8 h | 2.54 L/h/kg | 48.6 ± 1.5% | 30 min | strongly inhibiting its replication |  |  |  |  | Reduction of H1N1 titers [4]: 1.62 logs; Inhibition of CYP3A4 activity [24]: substantial inhibitory effects; pKi [10]: 7.42; pKi [11]: 7.10; Reduction of SARS-CoV-2 viral titers compared to control samples [25]: 35 to 280 fold; Influence on Calu-3 cell viability [26]: without influencing Calu-3 cell viabilitiy significantly; Inhibition of monkey CYP1A2 [12]: significant inhibition; Inhibition of rat CYP1A2 [13]: significant inhibition; Inhibition of beagle dog CYP1A2 [14]: no significant inhibition
CC(C)(C)NC(=O)NC1CCN(C(=O)[C@H](Cc2cccc(C(=N)N)c2)NS(=O)(=O)c2cccc(-c3ccc(CO)cc3)c2)CC1 [MI-1903] | Intermediate | 0.51 | 10.56 | only slightly reduced formation of viral foci |  |  |  |  |  |  | significant inhibitory effect | 0.753 h | 6.06 L/h/kg | 38.6 ± 5.5% | 30 min |  | No significant CYP inhibitory potential | No significant CYP inhibitory potential | No significant CYP inhibitory potential | No significant CYP inhibitory potential | CLint ([18]; intrinsic clearance from primary human hepatocytes scaled to whole liver/body weight): 6.0618 L/h/kg
CC(C)(C)NC(=O)NC1CCN(C(=O)[C@H](Cc2cccc(C(=N)N)c2)NS(=O)(=O)c2cccc(-c3ccc(CO)c(F)c3)c2)CC1 [MI-1904] | Intermediate | 0.35 | 7.29 |  |  |  |  |  |  |  | significant inhibitory effect | 3.99 h | 1.15 L/h/kg | 70.8 ± 8.6% | 120 min | most pronounced reduction | No significant CYP inhibitory potential | No significant CYP inhibitory potential | No significant CYP inhibitory potential | No significant CYP inhibitory potential | 
C=C[C@H]1C[N@@]2CC[C@H]1C[C@@H]2[C@@H](O)c1ccnc2ccc(OC)cc12 [quinidine, reference compound] |  |  |  |  |  |  |  |  |  |  |  |  |  |  |  |  |  |  |  |  | Inhibition of CYP2D6 activity by reference inhibitor ([22]; 3 µM, p < 0.001): significantly suppressed
